Results from the NIST ThermoML archive (doi:10.1016/j.jct.2009.07.001).
Numbers after ± are expanded uncertainties.

Experiment: excess molar enthalpy (molar enthalpy of mixing); xn = mol fraction of the nth substance listed
Details: 298.15 K, 101 kPa, Liquid, Calvet calorimetry

Question: With `CCCCCCCCCCO` [decan-1-ol] + CCCCOCCCC as the compound, how does the excess molar enthalpy (x1 = 0.0549) read?
Answer: 0.0829 ± 0.00335 kcal/mol

Question: What about the excess molar enthalpy (x1 = 0.1045) of the same compound?
Answer: 0.13 ± 0.00526 kcal/mol

Question: And the excess molar enthalpy (x1 = 0.1508)?
Answer: 0.159 ± 0.00645 kcal/mol

Question: What about the excess molar enthalpy (x1 = 0.1992) of the same compound?
Answer: 0.18 ± 0.00741 kcal/mol

Question: And the excess molar enthalpy (x1 = 0.2491)?
Answer: 0.194 ± 0.00789 kcal/mol

Question: What about the excess molar enthalpy (x1 = 0.2975) of the same compound?
Answer: 0.204 ± 0.00837 kcal/mol

Question: And the excess molar enthalpy (x1 = 0.3443)?
Answer: 0.207 ± 0.00837 kcal/mol

Question: What about the excess molar enthalpy (x1 = 0.3964) of the same compound?
Answer: 0.208 ± 0.00837 kcal/mol

Question: What about the excess molar enthalpy (x1 = 0.4484) of the same compound?
Answer: 0.214 ± 0.00884 kcal/mol

Question: What about the excess molar enthalpy (x1 = 0.4966) of the same compound?
Answer: 0.199 ± 0.00813 kcal/mol

Question: And the excess molar enthalpy (x1 = 0.5428)?
Answer: 0.186 ± 0.00765 kcal/mol

Question: And the excess molar enthalpy (x1 = 0.5887)?
Answer: 0.175 ± 0.00717 kcal/mol

Question: And the excess molar enthalpy (x1 = 0.646)?
Answer: 0.157 ± 0.00645 kcal/mol

Question: And the excess molar enthalpy (x1 = 0.6819)?
Answer: 0.146 ± 0.00598 kcal/mol

Question: What about the excess molar enthalpy (x1 = 0.7402) of the same compound?
Answer: 0.123 ± 0.00502 kcal/mol

Question: What about the excess molar enthalpy (x1 = 0.7812) of the same compound?
Answer: 0.106 ± 0.0043 kcal/mol

Question: And the excess molar enthalpy (x1 = 0.8272)?
Answer: 0.0825 ± 0.00335 kcal/mol

Question: And the excess molar enthalpy (x1 = 0.8767)?
Answer: 0.0595 ± 0.00239 kcal/mol

Question: What about the excess molar enthalpy (x1 = 0.9225) of the same compound?
Answer: 0.0356 ± 0.00143 kcal/mol
